The subject of test [1] is LP-1. Description: Cytotoxicity against human LP-1 cells after 24 to 72 hrs by SRB assay. It is filed as functional. For orientation: Sulforhodamine B stains cellular protein and so reports cell mass.
Test [2] deals with K562. Description: Cytotoxicity against human K562 cells after 24 to 72 hrs by SRB assay. The test is classed as functional.
For test [3], the system named is SK-OV-3. Description: Inhibition of PI3K in human SKOV3 cells assessed as inhibition of EGF1-induced AKT protein level up to 20 uM after 24 hrs by Western blot analysis. The test is classed as cell-based. A general note: Immunoblotting shows a protein as a band on a membrane.
For test [4], the system named is A549. The test can be described thus: Inhibition of PI3K in human A549 cells assessed as inhibition of EGF1-induced AKT protein level up to 20 uM after 24 hrs by Western blot analysis. It is filed as cell-based.
In test [5] the test system is H47D. Description: Inhibition of PI3K in human H47D cells assessed as inhibition of EGF1-induced AKT phosphorylation up to 20 uM after 24 hrs by Western blot analysis. The test is classed as cell-based.
Test [6] deals with HeLa. The test can be described thus: Inhibition of PI3K in human HeLa cells assessed as inhibition of EGF1-induced AKT phosphorylation up to 20 uM after 24 hrs by Western blot analysis. The test is classed as cell-based.
Test [7] concerns SK-OV-3. The test can be described thus: Inhibition of PI3K in human SKOV3 cells assessed as inhibition of EGF1-induced AKT phosphorylation up to 20 uM after 24 hrs by Western blot analysis. The test is classed as cell-based.
Test [8] deals with HUVEC. Description: Antiangiogenic activity in HUVEC assessed as inhibition of cell migration by measuring area of wounded gap at 5 uM after 8 to 24 hrs by wound healing assay. Details: scale not given: the % may be the effect or the level left. The test is classed as functional, Homo sapiens.
The test system of test [9] is A549. Description: Induction of apoptosis in human A549 cells assessed as activation of caspase-3 at 5 uM. It is filed as functional, cell-based.
In test [10] the test system is A549. Description: Inhibition of PI3K in human A549 cells assessed as inhibition of EGF1-induced AKT phosphorylation up to 20 uM after 24 hrs by Western blot analysis. It is filed as cell-based.
The test system of test [11] is HeLa. Description: Growth inhibition of human HeLa cells at 20 uM after 24 hrs by SRB assay. It is filed as functional.
Test [12] concerns HeLa. Description: Growth inhibition of human HeLa cells at 5 uM after 24 hrs by SRB assay. The test is classed as functional, cell-based.
Test [13] relates to A549. Description: Growth inhibition of human A549 cells at 5 to 20 uM after 24 hrs by SRB assay. The test is classed as functional, cell-based.
Test [14] relates to HeLa. Description: Growth inhibition of human HeLa cells after 24 hrs by SRB assay. The test is classed as functional, cell-based.
Test [15] deals with SPCA1. Description: Growth inhibition of human SPCA1 cells at 20 uM after 72 hrs by SRB assay. It is filed as functional, cell-based.
The test system of test [16] is NCI-H460. The test can be described thus: Growth inhibition of human H460 cells at 20 uM after 72 hrs by SRB assay. It is filed as functional, cell-based.
Test [17] has as its system HeLa. Description: Growth inhibition of human HeLa cells at 20 uM after 72 hrs by SRB assay. The test is classed as functional, cell-based.
For test [18], the system named is A549. The test can be described thus: Growth inhibition of human A549 cells at 20 uM after 72 hrs by SRB assay. The test is classed as functional, cell-based.
Test [19] deals with H47D. Description: Growth inhibition of human H47D cells at 20 uM after 72 hrs by SRB assay. It is filed as functional, cell-based.
Test [20] relates to SK-OV-3. Description: Growth inhibition of human SKOV3 cells at 20 uM after 72 hrs by SRB assay. The test is classed as functional, cell-based.
Test [21] relates to PC-3. The test can be described thus: Growth inhibition of human PC3 cells at 20 uM after 72 hrs by SRB assay. The test is classed as functional, cell-based.
Test [22] in a line: Cytotoxicity against human U87 cells after 24 to 72 hrs by SRB assay. As to conditions: U-87 MG. The test is classed as functional, U-87MG ATCC.
In test [23] the test system is B16. The test can be described thus: Cytotoxicity against mouse B16 cells after 24 to 72 hrs by SRB assay. The test is classed as functional.
For test [24], the system named is MDA-MB-231. Description: Cytotoxicity against human MDA-MB-231 cells after 24 to 72 hrs by SRB assay. The test is classed as functional.
Test [25] concerns A549. Description: Induction of apoptosis in human A549 cells assessed as activation of caspase-3 at 10 uM. It is filed as functional, cell-based.
Test [26] concerns H47D. Description: Inhibition of PI3K in human H47D cells assessed as inhibition of EGF1-induced AKT protein level up to 20 uM after 24 hrs by Western blot analysis. The test is classed as cell-based.
The test system of test [27] is HeLa. Description: Inhibition of PI3K in human HeLa cells assessed as inhibition of EGF1-induced AKT protein level up to 20 uM after 24 hrs by Western blot analysis. The test is classed as cell-based.

Structures are written as SMILES. The source made the active and inactive calls. The calls are words filed in the database; no cut-off is given here. A value given as a limit tells only on which side of the number the result lay.

For `CCOc1cccc2c1OC(c1ccccc1)C([N+](=O)[O-])=C2` (centres undefined), the results for the GI50 in test [1] and in [2] were 960 nM and 1180 nM, respectively.
`CCOc1cc(Br)cc2c1OCC([N+](=O)[O-])=C2`: the inhibition entry in test [3], in [4], in test [26] and in test [27] was “inactive” throughout. The inhibition entry in test [5], in [6], in [7] and in test [10] was “Active” in each case. Moreover, the Activity in test [8] is listed as 20%. Moreover, the result in test [9] and in [25] was Active. Further, the inhibition of growth at 20 µM in test [11] (read-out: GI) was over 90%. The “growth inhibition (GI)” value in [12], in test [13], in [15], in test [16], in test [17] and in test [18] was “Active” each time. For the same molecule, the “growth inhibition (GI)” value in test [19], in test [20] and in test [21] was “Active” in each case. The “growth inhibition (GI)” value in [14] was “Dose-dependent effect”. For the same molecule, the concentration for 50% growth inhibition (GI50) worked out at 12.6 µM in test [22]; 20.4 µM in test [23]; 2.03 µM in [24]; 330 nM in test [1]; 920 nM in [2].
For the molecule `CCOc1cccc2c1OC(c1ccc(F)cc1)C([N+](=O)[O-])=C2` (centres undefined), the inhibition result in test [6] and in test [7] was “Active” in each case. In addition, in test [8], the Activity is given as under 50%. Besides, the “growth inhibition (GI)” value in test [11], in test [12], in [13], in [15], in [16] and in test [17] was “Active” each time. For the same molecule, the “growth inhibition (GI)” value in [18], in [19], in test [20] and in test [21] was “Active” in each case. For the same molecule, the GI50 in test [22] came out at 18.7 µM; in test [23], 23.3 µM; in test [24] it was 8.53 µM; in [1], 570 nM; in [2] it was 1240 nM. Also, the outcome in test [25] was Active.
For the molecule `CCOc1cccc2c1OC(c1ccc(OC)cc1)C([N+](=O)[O-])=C2` (centres undefined), the GI50 in [1] was 3160 nM; in test [2], 4860 nM.
On the same counts, the results for `CCOc1cccc2c1OCC([N+](=O)[O-])=C2` are 640 nM and 1680 nM.
On the same counts, the results for `CCOc1cccc2c1OC(c1ccc(C#N)cc1)C([N+](=O)[O-])=C2` (centres undefined) are 440 nM and 1020 nM.

As a reminder, the GI50 is the concentration that inhibits growth by half.
